The values below are quoted from earlier work in patent publication US10711043B2, “Compositions and vaccines comprising vesicles and methods of using the same” (priority 2013, dated 2020).

As for `COc1cc2cc(c1Cl)N(C)C(=O)C[C@H](OC(=O)[C@H](C)N(C)C(C)=O)[C@]1(C)O[C@H]1[C@H](C)[C@@H]1C[C@@](O)(NC(=O)O1)[C@H](OC)/C=C/C=C(\C)C2` [Maytansine, maytansine], the solubility entry is “insoluble in water and most solvents”.
